Laboratory results from patent US20230165831A1, “METHOD AND COMPOSITION FOR RENDERING CANCER CELLS SUSCEPTIBLE TO TREATMENT BY TARGETED ONCOGENETIC DRIVERS” (IMPACT BIOLIFE SCIENCE, INC., priority 2021, published 2023).

What was measured:
[1] = tested on: prostate adenocarcinoma line LNCap cells; test: CTG (CellTiter-Glo) cell viability assay, 6×6 combo matrix, 72 h, LNCaP;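 further: luminescence signal read after adding CellTiter-Glo reagent, with cells exposed to compounds for 72 h at 37 °C under 5% CO2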
Description: (§1) 7) Using complete cell medium, adjust the volume of the suspension to achieve a cell concentration.
(§2) Solid compound of cis-platinum was solubilized in PBS to a stock solution of 3.333 mM.
(§3) Final volume is 100 µL per well at this point.
(§4) 1) Incubate the plates at room temperature and away from light for 30 minutes.
(§5) 3) Add 100 µL /well of CellTiter-Glo® Reagent in each well. Avoid light.
(§6) 4) Mix contents for 2 minutes on an orbital shaker.
(§7) 5) Incubate plate at room temperature for 10 minutes to stabilize the luminescent signal.

[2] = tested on: Liver cancer line SK-HEP-1 cells; test: CTG (CellTiter-Glo) cell viability assay, 6×6 combo matrix, 72 h, SK-Hep-1;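 further: luminescent signal read after 72 h compound exposure at 37 °C under 5% CO2, with medium-only wells serving as blank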
[3] = tested on: breast cancer line T47D cells; test: CTG (CellTiter-Glo) cell viability assay, 6×6 combo matrix, 72 h, T47D;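 further: luminescence read-out after 72 h at 37 °C under 5% CO2, with medium-only wells as blanks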
[4] = tested on: gastric cancer line MKN45 cells; test: CTG (CellTiter-Glo) cell viability assay, 6×6 combo matrix, 72 h, MKN45;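 further: MKN45 cell viability read as CellTiter-Glo luminescence after 72 h culture at 37 °C under 5% CO2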
Description: as §1, §2, §3, §4, §5, §6, §7

[5] = tested on: ovarian cancer line SK-OV3 cells; test: CTG (CellTiter-Glo) cell viability assay, 6×6 combo matrix, 72 h, SK-OV-3; details: SK-OV-3;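 further: luminescent signal read after CellTiter-Glo addition, cells exposed to compounds for 72 h at 37 °C under 5% CO2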
[6] = tested on: pancreatic cancer line Capan-1 cells; test: CTG (CellTiter-Glo) cell viability assay, 6×6 combo matrix, 72 h, Capan-1; format: cell-based; details: for Relatively Cell inhibition of vehicle control(%): Capan-1
Description: To measure the cell inhibition effect of compounds and synergy effect of test articles on ten (10) cell lines using standard CTG assay.
b. A549, T47D, SK-OV-3, MKN45, SK-Hep-1, HT-29, Capan-1, 786-O and LNCaP cell line, for compounds and vehicle groups, the seeding density of cell lines is 3000 cells/80 µL per well. For blank groups, add 100 µL medium. For PBS groups, add 100 µL PBS.
8) Incubate the U87MG, A549, T47D, SK-OV-3, MKN45, SK-Hep-1, HT-29, Capan-1, 786-O and LNCaP cells overnight at 37° C./5% CO2.
5) Incubate the plates at 37° C./5% CO2 for 72 hours.
6) Read plates in Envision.

[7] = tested on: kidney cancer line 786-O cells; test: CTG (CellTiter-Glo) cell viability assay, 6×6 combo matrix, 72 h, 786-O; details: for Relatively Cell inhibition of vehicle control(%): 786-O;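 on all read-outs here: luminescence read-out after adding CellTiter-Glo reagent, with cells incubated at 37 °C under 5% CO2 during compound exposure, part of a ten cell line synergy study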
[8] = tested on: colorectal cancer line HT29 cells; test: CTG (CellTiter-Glo) cell viability assay, 6×6 combo matrix, 72 h, HT29; details: HT29;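 further: cells exposed to compounds for 72 hours at 37 °C under 5% CO2, then viability read as luminescence after adding CellTiter-Glo Reagent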
Description: as §1, §2, §3, §4, §5, §6, §7

[9] = tested on: glioblastoma line U87MG cells; test: CTG (CellTiter-Glo) cell viability assay, 6×6 combo matrix, 72 h, U87MG;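 further: U87MG cells seeded at 2000 per well, exposed 72 h, viability read by CellTiter-Glo luminescence, inhibition expressed relative to vehicle-treated wells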
Description: as §1
U87MG cell lines, for compounds and vehicle groups, the seeding density of cell lines is 2000 cells/80 µL per well. For blank groups, add 100 µL medium. For PBS groups, add 100 µL PBS.
as §2, §3, §4, §5, §6, §7

[10] = tested on: lung adenocarcinoma line A549 cells; test: CTG (CellTiter-Glo) cell viability assay, 6×6 combo matrix, 72 h, A549; details: A549;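 further: luminescent ATP readout with CellTiter-Glo after compound exposure, used to assess growth inhibition and combination synergy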
[11] = cisplatin 0.048 µM only (myricetin plate)
[12] = cisplatin 1.2 µM only (myricetin plate)
[13] = cisplatin 6 µM only (myricetin plate)
[14] = cisplatin 30 µM only (myricetin plate)

## N.N.[Cl][Pt][Cl] [cisplatin]
[1]; cisplatin 0.048 µM only (LB-1 plate)
  Relatively Cell inhibition of vehicle control(%): -11.07%
[1]; [11]
  Relatively Cell inhibition of vehicle control(%): -7.42%
[1]; cisplatin 1.2 µM only (LB-1 plate)
  Relatively Cell inhibition of vehicle control(%): -13.28%
[1]; [12]
  Relatively Cell inhibition of vehicle control(%): -9.21%
[1]; cisplatin 6 µM only (LB-1 plate)
  Relatively Cell inhibition of vehicle control(%): 12.99%
[1]; [13]
  Relatively Cell inhibition of vehicle control(%): 19.01%
[1]; cisplatin 30 µM only (LB-1 plate)
  Relatively Cell inhibition of vehicle control(%): 53.09%
[1]; [14]
  Relatively Cell inhibition of vehicle control(%): 61.54%
[2]; cisplatin 0.048 µM only (LB-1 table)
  Relatively Cell inhibition of vehicle control: -8.71%
[2]; cisplatin 0.048 µM only (myricetin table)
  Relatively Cell inhibition of vehicle control: -7.69%
[2]; cisplatin 1.2 µM only (LB-1 table)
  Relatively Cell inhibition of vehicle control: -10.98%
[2]; cisplatin 1.2 µM only (myricetin table)
  Relatively Cell inhibition of vehicle control: -2.56%
[2]; cisplatin 6 µM only (LB-1 table)
  Relatively Cell inhibition of vehicle control: 29.88%
[2]; cisplatin 6 µM only (myricetin table)
  Relatively Cell inhibition of vehicle control: 29.55%
[2]; cisplatin 30 µM only (LB-1 table)
  Relatively Cell inhibition of vehicle control: 70.68%
[2]; cisplatin 30 µM only (myricetin table)
  Relatively Cell inhibition of vehicle control: 76.71%
[3]; 0.048 µM cisplatin only (LB-1 0)
  Relatively Cell inhibition of vehicle control(%): 1.63%
[3]; 0.048 µM cisplatin only (myricetin 0)
  Relatively Cell inhibition of vehicle control(%): 0.23%
[3]; 1.2 µM cisplatin only (LB-1 0)
  Relatively Cell inhibition of vehicle control(%): -1.67%
[3]; 1.2 µM cisplatin only (myricetin 0)
  Relatively Cell inhibition of vehicle control(%): 0.07%
[3]; 6 µM cisplatin only (LB-1 0)
  Relatively Cell inhibition of vehicle control(%): -0.49%
[3]; 6 µM cisplatin only (myricetin 0)
  Relatively Cell inhibition of vehicle control(%): 11.28%
[3]; 30 µM cisplatin only (LB-1 0)
  Relatively Cell inhibition of vehicle control(%): 22.74%
[3]; 30 µM cisplatin only (myricetin 0)
  Relatively Cell inhibition of vehicle control(%): 36.54%
[4]; Cis 0.048 µM only (LB-1 0)
  Relatively Cell inhibition of vehicle control(%): 7.78%
[4]; Cis 0.048 µM only (Myr 0)
  Relatively Cell inhibition of vehicle control(%): 5.10%
[4]; Cis 1.2 µM only (LB-1 0)
  Relatively Cell inhibition of vehicle control(%): 5.53%
[4]; Cis 1.2 µM only (Myr 0)
  Relatively Cell inhibition of vehicle control(%): 22.76%
[4]; Cis 6 µM only (LB-1 0)
  Relatively Cell inhibition of vehicle control(%): 33.22%
[4]; Cis 6 µM only (Myr 0)
  Relatively Cell inhibition of vehicle control(%): 48.92%
[4]; Cis 30 µM only (LB-1 0)
  Relatively Cell inhibition of vehicle control(%): 81.54%
[4]; Cis 30 µM only (Myr 0)
  Relatively Cell inhibition of vehicle control(%): 90.46%
[5]; Cis 0.048 µM only (LB-1 matrix)
  Relatively Cell inhibition of vehicle control(%): -0.61%
[5]; Cis 0.048 µM only (myricetin matrix)
  Relatively Cell inhibition of vehicle control(%): 0.65%
[5]; Cis 1.2 µM only (LB-1 matrix)
  Relatively Cell inhibition of vehicle control(%): 7.66%
[5]; Cis 1.2 µM only (myricetin matrix)
  Relatively Cell inhibition of vehicle control(%): 17.32%
[5]; Cis 6 µM only (LB-1 matrix)
  Relatively Cell inhibition of vehicle control(%): 50.05%
[5]; Cis 6 µM only (myricetin matrix)
  Relatively Cell inhibition of vehicle control(%): 55.97%
[5]; Cis 30 µM only (LB-1 matrix)
  Relatively Cell inhibition of vehicle control(%): 88.98%
[5]; Cis 30 µM only (myricetin matrix)
  Relatively Cell inhibition of vehicle control(%): 85.03%
[6]; Cis 0.048 µM only
  Relatively Cell inhibition of vehicle control(%): -11.79%
[6]; Cis 1.2 µM only
  Relatively Cell inhibition of vehicle control(%): 19.41%
[6]; Cis 6 µM only
  Relatively Cell inhibition of vehicle control(%): 49.43%
[6]; Cis 30 µM only
  Relatively Cell inhibition of vehicle control(%): 79.85%
[6]; cisplatin 0.048 µM only
  Relatively Cell inhibition of vehicle control: -4.42%
[6]; cisplatin 1.2 µM only
  Relatively Cell inhibition of vehicle control: 16.43%
[6]; cisplatin 6 µM only
  Relatively Cell inhibition of vehicle control: 42.34%
[6]; cisplatin 30 µM only
  Relatively Cell inhibition of vehicle control: 66.79%
[7]; Cis 0.048 µM only (LB-1 0)
  Relatively Cell inhibition of vehicle control(%): 0.45%
[7]; Cis 1.2 µM only (LB-1 0)
  Relatively Cell inhibition of vehicle control(%): 5.31%
[7]; Cis 6 µM only (LB-1 0)
  Relatively Cell inhibition of vehicle control(%): 60.32%
[7]; Cis 30 µM only (LB-1 0)
  Relatively Cell inhibition of vehicle control(%): 90.04%
[7]; cisplatin 0.048 µM only
  Relatively Cell inhibition of vehicle control: -1.09%
[7]; cisplatin 1.2 µM only
  Relatively Cell inhibition of vehicle control: 10.33%
[7]; cisplatin 6 µM only
  Relatively Cell inhibition of vehicle control: 67.62%
[7]; cisplatin 30 µM only
  Relatively Cell inhibition of vehicle control: 86.78%
[8]; Cis 0.048 µM only (LB-1 0)
  Relatively Cell inhibition of vehicle control(%): 2.74%
[8]; Cis 0.048 µM only (Myr 0)
  Relatively Cell inhibition of vehicle control(%): -4.21%
[8]; Cis 1.2 µM only (LB-1 0)
  Relatively Cell inhibition of vehicle control(%): 6.85%
[8]; Cis 1.2 µM only (Myr 0)
  Relatively Cell inhibition of vehicle control(%): 6.63%
[8]; Cis 6 µM only (LB-1 0)
  Relatively Cell inhibition of vehicle control(%): 19.05%
[8]; Cis 6 µM only (Myr 0)
  Relatively Cell inhibition of vehicle control(%): 20.8%
[8]; Cis 30 µM only (LB-1 0)
  Relatively Cell inhibition of vehicle control(%): 52.83%
[8]; Cis 30 µM only (Myr 0)
  Relatively Cell inhibition of vehicle control(%): 66.86%
[9]; cisplatin 0.048 µM only
  Relatively Cell inhibition of vehicle control(%): 1.97%
[9]; [11]
  Relatively Cell inhibition of vehicle control(%): 0.89%
[9]; cisplatin 1.2 µM only
  Relatively Cell inhibition of vehicle control(%): 11.78%
[9]; [12]
  Relatively Cell inhibition of vehicle control(%): 15.05%
[9]; cisplatin 6 µM only
  Relatively Cell inhibition of vehicle control(%): 46.78%
[9]; [13]
  Relatively Cell inhibition of vehicle control(%): 58.90%
[9]; cisplatin 30 µM only
  Relatively Cell inhibition of vehicle control(%): 83.20%
[9]; [14]
  Relatively Cell inhibition of vehicle control(%): 86.28%
[10]; 30 µM cisplatin only (LB-1 0), 72 h
  inhibition rate: 65.03%
[10]; cisplatin 0.048 µM only (myricetin 0)
  Relatively Cell inhibition of vehicle control(%): 1.46%
[10]; cisplatin 1.2 µM only (myricetin 0)
  Relatively Cell inhibition of vehicle control(%): 0.61%
[10]; cisplatin 6 µM only (myricetin 0)
  Relatively Cell inhibition of vehicle control(%): 33.19%
[10]; cisplatin 30 µM only (myricetin 0)
  Relatively Cell inhibition of vehicle control(%): 77.27%
[10]; Cis 0.048 µM only
  Relatively Cell inhibition of vehicle control(%): 0.17%
[10]; Cis 1.2 µM only
  Relatively Cell inhibition of vehicle control(%): 1.57%
[10]; Cis 6 µM only
  Relatively Cell inhibition of vehicle control(%): 33.27%
[10]; Cis 30 µM only
  Relatively Cell inhibition of vehicle control(%): 65.03%
